Test results from patent US20180113115A1, “SCREENING ASSAYS BASED ON MAG AND/OR ABHD6 FOR SELECTING INSULIN SECRETION PROMOTING AGENT” (VAL-CHUM, LIMITED PARTNERSHIP, priority 2010, published 2018).

What was measured:
ABHD12 = conditions: cited from earlier work
INS 832/13 cells [1] = test: Effect of lipase inhibitors on [U-14C]-glucose incorporation into lipids; assay type: cell-based; conditions: 1 and 10 mM [U14C]-glucose, 50 μM orlistat
Description: (§1) INS 832/13 cells (Hohmeir et al.) were cultured at 37° C. in a humidified atmosphere containing 5% CO2 in RPMI 1640 with sodium bicarbonate, supplemented with 10% (v/v) fetal calf serum (Wisent), 10 mM HEPES, pH 7.4, 2 mM L-glutamine, 1 mM sodium pyruvate and 50 μM β-mercaptoethanol (complete RPMI). Cells were grown to 80% confluence. Media were changed to RPMI 1640 containing 3 mM glucose supplemented as the complete RPMI 24 h prior to the experiments. Insulin secretion incubations were conducted in Krebs-Ringer bicarbonate buffer containing 10 mM HEPES, pH 7.4 (KRBH).
INS 832/13 cells were incubated overnight at 11 mM [U-^14C]-glucose in RPMI medium in a CO2-incubator in order to pre-label all the lipids in the cells. Then the cells were washed in KRBH (1 mM [U-^14C]-glucose) and pre-incubated for 45 min in KRBH at 1 mM [U-^14C]-glucose to bring metabolism to basal level. After this, cells were further incubated for 2 h in KRBH at 1 and 10 mM [U-^14C]-glucose and the indicated inhibitors. […] Then the cells were washed rapidly and flash-frozen in liquid nitrogen and extracted for lipids. Lipids were separated by TLC and the associated radioactivity was quantified. Neutral lipids were separated on boric acid/silica gel-TLC, with two solvent systems, first petroleum ether: diethyl ether: acetic acid (70:30:1), followed by second solvent system up to half of the plates, chloroform: acetone: acetic acid (60:40:1). Phospholipids were separated with a solvent system, chloroform: methanol: water (65:25:4).

INS 832/13 cells [2] = test: Insulin secretion measurement in INS 832/13 cells (static incubation); assay type: cell-based
Description: as §1
INS 832/13 cells were washed in KRBH containing 1 mM glucose and 0.5% defatted BSA (KRBH 1G/0.5% BSA) and pre-incubated for 45 min in KRBH 1G/0.5% BSA in presence of pharmacological agents (at indicated concentrations) or vehicle (DMSO). […] When examining the effect of 2-AG, it was added to cells at 0 to 1 μM concentration at 2 mM and 10 mM glucose. Insulin secretion from INS 832/13 cells was measured from either 45-min or 2-h static incubations in KRBH containing various glucose concentrations, 0.5% defatted BSA and pharmacological agents or vehicle, with or without 35 mM KCl or 0.3 mM palmitate, as specified.

INS 832/13 cells [3] = test: [1-14C]-arachidonic acid incorporation into 1-AG and 2-AG; assay type: cell-based
Description: FIG. 2A and FIG. 2B illustrate that glucose stimulates the incorporation of [1-^14C]-arachidonic acid into 1-AG and 2-AG in INS 832/13 cells. Incorporation of [1-^14C]-arachidonic acid (nmol/mg protein) is shown in function of various compounds. Results are shown for low (2 mM, 2G, white) and high (10 mM, 10G, dotted) glucose concentration. […] (n=6; *** p<0.001). Results are shown in nmol/mg protein for different cellular compounds (PL=phospholipids, 1-AG=1-monoarachidonylglycerol, 2-AG=2-monoarachidonylglycerol, NEFA=non-esterified fatty acids, 1,2-DAG=1,2-diacylglycerol, 1,3-DAG=1,3-diacylglycerol, TG=triacylglycerol).

[4] = system: INS832/13 cell membrane extracts; test: 1-OG (MAG) hydrolysis by cell membrane extracts, released oleic acid by HPLC; assay type: biochemical; conditions: 50 μM 1-oleoylglycerol, 1 h at 30° C.
Description: 8 μg of […] cell membrane extracts were incubated with 50 μM of MAG (1-oleoylglycerol) and the indicated inhibitors for 1 h at 30° C. Released oleic acid was measured by HPLC after Dole's extraction and derivatization with bromoacetaminophenone.

rat islets = conditions: lipolysis inhibition by pan-lipase inhibitors; cited from earlier work
TRPV1-R [5] = conditions: cited from earlier work
TRPV1-R [6] = molecular target: TRPV1-R (Homo sapiens, UniProt Q8NER1); conditions: both in vitro and in vivo; cited from earlier work
β-cell = conditions: inhibition of β-cell plasma membrane DAG lipase activity; cited from earlier work

Chain of TRPV1-R (Homo sapiens, UniProt Q8NER1) (Q8NER1 whole entry): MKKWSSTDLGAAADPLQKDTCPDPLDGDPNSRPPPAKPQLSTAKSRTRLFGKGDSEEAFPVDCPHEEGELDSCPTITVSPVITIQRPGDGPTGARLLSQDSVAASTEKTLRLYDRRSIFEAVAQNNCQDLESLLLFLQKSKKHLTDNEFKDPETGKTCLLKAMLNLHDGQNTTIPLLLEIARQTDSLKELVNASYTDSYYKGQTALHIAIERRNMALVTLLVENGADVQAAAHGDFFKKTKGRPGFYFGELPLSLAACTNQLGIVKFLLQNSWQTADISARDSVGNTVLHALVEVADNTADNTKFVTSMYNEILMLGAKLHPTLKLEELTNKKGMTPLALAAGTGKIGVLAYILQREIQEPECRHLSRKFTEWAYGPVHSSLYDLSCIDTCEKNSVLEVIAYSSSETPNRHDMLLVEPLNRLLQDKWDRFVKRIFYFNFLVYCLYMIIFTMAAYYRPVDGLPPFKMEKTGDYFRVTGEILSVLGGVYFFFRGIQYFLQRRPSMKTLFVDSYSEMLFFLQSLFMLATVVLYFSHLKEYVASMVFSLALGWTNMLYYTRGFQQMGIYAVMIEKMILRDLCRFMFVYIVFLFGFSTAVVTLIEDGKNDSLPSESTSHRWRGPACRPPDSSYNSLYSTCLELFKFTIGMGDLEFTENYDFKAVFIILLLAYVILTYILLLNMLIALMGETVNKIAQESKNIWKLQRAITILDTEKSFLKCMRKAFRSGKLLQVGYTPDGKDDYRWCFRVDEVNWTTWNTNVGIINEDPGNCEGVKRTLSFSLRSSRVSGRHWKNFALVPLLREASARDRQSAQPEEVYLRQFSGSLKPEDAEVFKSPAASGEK

Question: Which Ki (ABHD12) does the source give for `CCCCCCCCCCC[C@@H](C[C@@H]1OC(=O)[C@H]1CCCCCC)OC(=O)[C@H](CC(C)C)NC=O` [orlistat, tetrahydrolipstatin] here?
Answer: < 100 nM

Question: What about the “release of [U14C]-free fatty acids (FFA)” value (INS 832/13 cells [1]; 1 μM JZL184) of the same compound?
Answer: almost completely lowered this release

Question: What about the “glucose incorporation into phospholipids” value (INS 832/13 cells [1]; 10 μM WWL70) of the same compound?
Answer: None of the lipase inhibitors had any significant effect

Question: And the “glucose incorporation into 1-monoacylglycerol (1-MAG)” value (INS 832/13 cells [1]; 10 μM WWL70, 1 μM JZL184)?
Answer: significantly lowered

Question: And the “glucose incorporation into 2-monoacylglycerol (2-MAG)” value (INS 832/13 cells [1]; 10 μM WWL70, 1 μM JZL184)?
Answer: no effect

Question: And the “glucose incorporation into diacylglycerol (DAG)” value (INS 832/13 cells [1]; 10 μM WWL70, 1 μM JZL184)?
Answer: Neither of the inhibitors had any effect

Question: And the “glucose incorporation into triglycerides (TG)” value (INS 832/13 cells [1]; 10 μM WWL70, 1 μM JZL184)?
Answer: TG accumulated

Question: And the insulin secretion (INS 832/13 cells [2]; 100 μM orlistat, 2 and 10 mM glucose)?
Answer: curtails insulin secretion

Question: What about the “glucose-stimulated insulin secretion (GSIS)” value (INS 832/13 cells [2]; increasing glucose (5 and 10 mM), 10 μM WWL70, 50 μM orlistat, 1 μM JZL184) of the same compound?
Answer: strongly inhibited GSIS

Question: What about the “[1-14C]-arachidonic acid incorporation into 1-AG and 2-AG” value (INS 832/13 cells [3]) of the same compound?
Answer: curtails

Question: What about the “1-OG hydrolysis activity (released oleic acid)” value [4] of the same compound?
Answer: inhibited the 1-OG hydrolysis activity

Question: And the GSIS (rat islets)?
Answer: curtailed GSIS

Question: Which results are given for `COc1cc(CNC(=O)CCCC/C=C/C(C)C)ccc1O` [capsaicin]?
Answer: insulin resistance (TRPV1-R [5]; administration of capsaicin): decrease insulin resistance; plasma insulin levels (TRPV1-R [5]; in vivo): elevates plasma insulin levels; insulin secretion and Ca2+ influx (TRPV1-R [6]): elevate insulin secretion and Ca^2+ influx

Question: Which GSIS (β-cell) does the source give for `O=C(NCCCCCCNC(=O)ON=C1CCCCC1)ON=C1CCCCC1` [RHC80267] here?
Answer: lowered GSIS

Question: For `Cc1cc(C)[nH]n1` [3,5-dimethylpyrazole], which GSIS (rat islets) is on record?
Answer: curtailed GSIS
